Experiment [1] deals with Brassica rapa subsp. oleifera. Description: Post-emergence herbicidal activity against one-leaf stage Brassica rapa subsp. oleifera under greenhouse condition assessed as complete bleaching of leaves at 300 g /ha measured after 24 days by spray method. The experiment is classed as functional, organism-based.
In experiment [2] the test system is Brassica rapa subsp. oleifera. Description: Post-emergence herbicidal activity against one-leaf stage Brassica rapa subsp. oleifera under greenhouse condition assessed as complete bleaching of leaves at 600 g /ha measured after 24 days by spray method. The experiment is classed as functional, organism-based.
Experiment [3] has as its system Brassica rapa subsp. oleifera. The experiment in a line: Pre-emergence herbicidal activity against Brassica rapa subsp. oleifera under greenhouse condition at 750 g /ha measured after 24 days by spray method. The format is functional. Conditions: 576 h, read-out: GI.
Experiment [4] deals with Brassica rapa subsp. oleifera. The experiment in a line: Post-emergence herbicidal activity against one-leaf stage Brassica rapa subsp. oleifera under greenhouse condition at 750 g /ha measured after 24 days by spray method. The experiment is classed as functional. The note with it: 576 h, read-out: GI.
For experiment [5], the system named is Brassica rapa subsp. oleifera. The experiment in a line: Post-emergence herbicidal activity against one-leaf stage Brassica rapa subsp. oleifera under greenhouse condition assessed as complete bleaching of leaves at 150 g /ha measured after 24 days by spray method. The format is functional, organism-based.
Experiment [6] concerns Echinochloa crus-galli. The experiment in a line: Pre-emergence herbicidal activity against Echinochloa crus-galli (barnyard grass) under greenhouse condition at 750 g /ha measured after 24 days by spray method. The format is functional. The note with it: 576 h, read-out: GI.
Experiment [7] relates to Brassica rapa subsp. oleifera. Description: Post-emergence herbicidal activity against one-leaf stage Brassica rapa subsp. oleifera under greenhouse condition at 150 g /ha measured after 24 days by spray method. The format is functional. Conditions: 576 h, read-out: GI.
Experiment [8] concerns Brassica rapa subsp. oleifera. Description: Post-emergence herbicidal activity against one-leaf stage Brassica rapa subsp. oleifera under greenhouse condition assessed as complete bleaching of leaves at 75 g /ha measured after 24 days by spray method. The experiment is classed as functional, organism-based.
The subject of experiment [9] is Amaranthus retroflexus. The experiment in a line: Post-emergence herbicidal activity against one-leaf stage of Amaranthus retroflexus under greenhouse condition at 750 g /ha measured after 24 days by spray method. The format is functional. The note with it: 576 h, read-out: GI.
The subject of experiment [10] is Spirodela polyrhiza. Description: Bleaching herbicidal activity in Spirodela polyrhiza fronds cultured in compound-containing in medium assessed as chlorophyll inhibition at 1 ug/ml after 7 days. The experiment is classed as functional. The note with it: 168 h.
For experiment [11], the system named is Brassica rapa subsp. oleifera. The experiment in a line: Post-emergence herbicidal activity against one-leaf stage Brassica rapa subsp. oleifera under greenhouse condition at 300 g /ha measured after 24 days by spray method. The experiment is classed as functional. The note with it: 576 h, read-out: GI.
The subject of experiment [12] is Digitaria. Description: Pre-emergence herbicidal activity against Digitaria adscendens under greenhouse condition at 750 g /ha measured after 24 days by spray method. Conditions: in Digitaria adscendens, 576 h, read-out: GI. The experiment is classed as functional.
Experiment [13] deals with Brassica rapa subsp. oleifera. The experiment in a line: Post-emergence herbicidal activity against one-leaf stage Brassica rapa subsp. oleifera under greenhouse condition at 75 g /ha measured after 24 days by spray method. The note with it: 576 h, read-out: GI. The format is functional.
In experiment [14] the test system is Brassica rapa subsp. oleifera. Description: Post-emergence herbicidal activity against one-leaf stage Brassica rapa subsp. oleifera under greenhouse condition at 600 g /ha measured after 24 days by spray method. The note with it: 576 h, read-out: GI. The experiment is classed as functional.
In experiment [15] the test system is Digitaria. Description: Post-emergence herbicidal activity against one-leaf stage of Digitaria adscendens under greenhouse condition at 750 g /ha measured after 24 days by spray method. The experiment is classed as functional. The note with it: in Digitaria adscendens, 576 h, read-out: GI.
For experiment [16], the system named is Amaranthus retroflexus. The experiment in a line: Pre-emergence herbicidal activity against Amaranthus retroflexus under greenhouse condition at 750 g /ha measured after 24 days by spray method. The format is functional. Conditions: 576 h, read-out: GI.
Experiment [17] relates to Echinochloa crus-galli. Description: Post-emergence herbicidal activity against one-leaf stage of Echinochloa crus-galli (barnyard grass) under greenhouse condition at 750 g /ha measured after 24 days by spray method. Conditions: 576 h, read-out: GI. The experiment is classed as functional.
In experiment [18] the test system is Spirodela polyrhiza. The experiment in a line: Bleaching herbicidal activity in Spirodela polyrhiza fronds cultured in compound-containing in medium assessed as chlorophyll inhibition at 10 ug/ml after 7 days. The experiment is classed as functional. Conditions: 168 h.
Experiment [19] concerns Amaranthus retroflexus. Description: Post-emergence herbicidal activity against one-leaf stage Amaranthus retroflexus under greenhouse condition assessed as complete bleaching of leaves at 600 g /ha measured after 24 days by spray method. The format is functional, organism-based.
In experiment [20] the test system is Amaranthus retroflexus. The experiment in a line: Post-emergence herbicidal activity against one-leaf stage Amaranthus retroflexus under greenhouse condition at 150 g /ha measured after 24 days by spray method. The experiment is classed as functional. Conditions: 576 h, read-out: GI.
The subject of experiment [21] is Amaranthus retroflexus. Description: Post-emergence herbicidal activity against one-leaf stage Amaranthus retroflexus under greenhouse condition assessed as complete bleaching of leaves at 300 g /ha measured after 24 days by spray method. The format is functional, organism-based.
Experiment [22] has as its system Amaranthus retroflexus. Description: Post-emergence herbicidal activity against one-leaf stage Amaranthus retroflexus under greenhouse condition at 300 g /ha measured after 24 days by spray method. The experiment is classed as functional. Conditions: 576 h, read-out: GI.
Experiment [23] relates to Amaranthus retroflexus. The experiment in a line: Post-emergence herbicidal activity against one-leaf stage Amaranthus retroflexus under greenhouse condition at 75 g /ha measured after 24 days by spray method. The experiment is classed as functional. The note with it: 576 h, read-out: GI.
The test system of experiment [24] is Amaranthus retroflexus. Description: Post-emergence herbicidal activity against one-leaf stage Amaranthus retroflexus under greenhouse condition at 600 g /ha measured after 24 days by spray method. The experiment is classed as functional. The note with it: 576 h, read-out: GI.

Activity calls are given as the source filed them. No cut-off for these calls is given here.

For `Cc1cc(-c2cccc(C(F)(F)F)c2)c(OCc2ccccc2C)nn1`, the result in [1], in experiment [2], in experiment [5] and in [8] was Active. In addition, the inhibition of growth at 750 g/ha in experiment [3] came out at 58%; in [4], 97%; in the experiment with Echinochloa crus-galli [6], 2%; with Amaranthus retroflexus [9] it was 29%; in the experiment on Digitaria [12] it was 19%; with Digitaria [15] it was 7%. The inhibition of growth at 750 g/ha in the experiment with Amaranthus retroflexus [16] was 36%; in the experiment with Echinochloa crus-galli [17] it was 55%. Also, in experiment [7], the inhibition of growth at 150 g/ha worked out at 79%. Moreover, the inhibition (usually the relative decrease from the control value, in per cent) at 1 µg/mL with Spirodela polyrhiza [10] came to 62%. Moreover, the inhibition of growth at 300 g/ha in experiment [11] is 86%. For the same compound, the inhibition of growth at 75 g/ha in [13] is 44%. The inhibition of growth at 600 g/ha in [14] was 95%. Moreover, in the experiment with Spirodela polyrhiza [18], the inhibition at 10 µg/mL was 86%.

`Cc1cc(-c2cccc(C(F)(F)F)c2)c(Oc2ccccc2Cl)nn1`: the result (in [1]; in [2]; in the experiment on Amaranthus retroflexus [19]; in [5]; in experiment [8]; in the experiment on Amaranthus retroflexus [21]) was Active. In addition, the inhibition of growth at 750 g/ha was determined as 9% in [3]; 100% in experiment [4]; 0% in the experiment on Echinochloa crus-galli [6]; 84% in the experiment on Amaranthus retroflexus [9]; 19% in the experiment on Digitaria [12]; 27% with Digitaria [15]. The inhibition of growth at 750 g/ha in the experiment on Amaranthus retroflexus [16] was determined as 0%; in the experiment on Echinochloa crus-galli [17], 24%. Moreover, the inhibition of growth at 150 g/ha with Amaranthus retroflexus [20] was 20%; in experiment [7], 48%. Moreover, the inhibition at 1 µg/mL in the experiment with Spirodela polyrhiza [10] was found to be 42%. Also, the inhibition of growth at 300 g/ha came to 67% in experiment [11] and 39% in the experiment with Amaranthus retroflexus [22]. In addition, the inhibition of growth at 75 g/ha worked out at 31% in experiment [13] and 5% in the experiment with Amaranthus retroflexus [23]. The results for the inhibition of growth at 600 g/ha (in [14]; in the experiment with Amaranthus retroflexus [24]) were 91% and 65%, respectively. Moreover, the inhibition at 10 µg/mL in the experiment on Spirodela polyrhiza [18] was found to be 50%.

For `Cc1cc(-c2cccc(C(F)(F)F)c2)c(OCc2ccccc2Br)nn1`, the result in experiment [1], in experiment [2] and in [5] was Active. In addition, the inhibition of growth at 750 g/ha in experiment [3] was found to be 8%; in experiment [4], 91%; in the experiment on Echinochloa crus-galli [6], 1%; in the experiment on Amaranthus retroflexus [9], 54%; in the experiment with Digitaria [12], 25%; with Digitaria [15] it was 3%. Also, the figures for the inhibition of growth at 750 g/ha in the experiment with Amaranthus retroflexus [16] and with Echinochloa crus-galli [17] were 21% and 0%, respectively. Further, the inhibition of growth at 150 g/ha in experiment [7] turned out to be 49%. In addition, the inhibition at 1 µg/mL in the experiment on Spirodela polyrhiza [10] turned out to be 93%. In [11], the inhibition of growth at 300 g/ha came out at 73%. Besides, the inhibition of growth at 600 g/ha in experiment [14] worked out at 85%. Besides, the inhibition at 10 µg/mL with Spirodela polyrhiza [18] worked out at 100%.

Source of the values: ChEMBL document CHEMBL3045111, “Synthesis and herbicidal activities of novel 3-(substituted benzyloxy or phenoxy)-6-methyl-4-(3-trifluoromethylphenyl)pyridazine derivatives” (2012).
